Among the data in patent publication US20080234327A1, “DIHYDROINDAZOLE COMPOUNDS USEFUL IN TREATING IRON DISORDERS” (XENON PHARMACEUTICALS INC., priority 2007, published 2008) are melting point and IC50 values, retold here.

In one series the target is T1, DMT1 (Homo sapiens, UniProt P49281).
T1 sequence (P49281 1-568): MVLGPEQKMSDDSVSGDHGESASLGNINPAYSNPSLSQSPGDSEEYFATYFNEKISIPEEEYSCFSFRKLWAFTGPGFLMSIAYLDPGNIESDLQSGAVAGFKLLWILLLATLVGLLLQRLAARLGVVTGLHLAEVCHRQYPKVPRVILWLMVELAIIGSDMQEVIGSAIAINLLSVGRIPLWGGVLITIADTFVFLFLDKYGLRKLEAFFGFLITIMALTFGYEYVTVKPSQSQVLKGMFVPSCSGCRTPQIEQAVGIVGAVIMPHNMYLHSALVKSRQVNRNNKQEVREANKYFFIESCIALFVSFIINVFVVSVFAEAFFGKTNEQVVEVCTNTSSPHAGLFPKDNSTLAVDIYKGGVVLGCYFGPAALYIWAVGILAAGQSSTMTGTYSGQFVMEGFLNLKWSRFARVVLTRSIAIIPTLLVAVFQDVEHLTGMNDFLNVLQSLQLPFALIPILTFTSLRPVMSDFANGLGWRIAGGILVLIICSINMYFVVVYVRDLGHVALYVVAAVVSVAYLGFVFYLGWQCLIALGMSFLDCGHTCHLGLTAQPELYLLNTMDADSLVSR
The series can be described thus: DMT1 activity assay (in vitro). The settings on record: inhibition of DMT1; read-out: IC50 Activity Level. The format is cell-based. The text has this: One such protocol involves the screening of chemical agents for ability to modulate the activity of DMT1 thereby identifying it as a modulating agent. The in vitro activity of DMT1 can be measured in cell based assays by either directly measuring iron flux (using a radioactively labelled iron ^55Fe) or by measuring the fluorescence of a cell permeable iron fluorophore such as calcein. Stable cell lines overexpressing DMT1 are exposed to ^55Fe or loaded with calcein and then compound is applied. […] Alternatively, in another format electrophysiological techniques can be used to measure the current or iron or other metals traversing the cell membrane with DMT1 in a Xenopus oocyte or other cell based system (Gunshin et al., Nature, 1997, 31; 388(6641):482-8).
This example discloses various in vitro assay for testing and profiling test agents against DMT1 stably expressed in cells of either an endogenous or recombinant origin. These assays can use stable cell lines overexpressing DMT1 or intestinal cells and intestinal tissue expressing endogenous DMT1. DMT1 function could also be assessed in other cell types that express DMT1. Of greatest relevance would be the erythrocytes (e.g. K562 cells) or hepatocytes (e.g. […]).
DMT1 function can be assessed in a number of ways, including monitoring fluorescence changes of an iron fluorophore (e.g. calcein), monitoring uptake of radiolabelled iron (^55Fe or ^59Fe) (Picard et al., J. Biol. Chem., 2000, 275(46):35738-45 and Wetli et al., Chem. Biol. 2006 September; 13(9):965-72), or by assessing the current or transport of iron and other metals into the cells or tissues using standard electrophysiological techniques (Gunshin et al., Nature, 1997, 388(6641):482-8.).
Variations of these assays involve alterations of incubation times, the iron status of the cells and tissues (which may be modulated by chemical chelators or by harvesting from iron deficient animals), the metal cation detected and the pH of the reaction can generally be made by conventional techniques known to those skilled in the art.

`Oc1c2c(nn1-c1ccccn1)CCc1ccccc1-2` [Example 1, 2-pyridin-2-yl-4,5-dihydro-2H-benzo[e]indazol-1-ol]: the melting point is 145 to 146 °C.
The same measure, in the same setting: as for `Oc1c2c(nn1-c1ccccn1)CCc1cc(Br)ccc1-2` [Example 1.1, 7-bromo-2-pyridin-2-yl-4,5-dihydro-2H-benzo[e]indazol-1-ol], the figure is 164 to 165 °C.
The compound `COc1ccc2c(c1)CCc1nn(-c3ccccn3)c(O)c1-2` [Example 1.2, 7-methoxy-2-pyridin-2-yl-4,5-dihydro-2H-benzo[e]indazol-1-ol] registered a melting point of 139 to 140 °C.
On to `COc1ccc2c(c1)-c1c(nn(-c3ccccn3)c1O)CC2` [Example 1.3, 8-methoxy-2-pyridin-2-yl-4,5-dihydro-2H-benzo[e]indazol-1-ol], for which the melting point was 116 to 117 °C. For the same compound, the 50% inhibitory concentration (IC50) on DMT1 is at least 1000 nM.
Compound `N#Cc1ccc2c(c1)CCc1nn(-c3ccccn3)c(O)c1-2` [Example 1.4, 1-hydroxy-2-pyridin-2-yl-4,5-dihydro-2H-benzo[e]indazole-7-carbonitrile] gave a melting point of 232 to 233 °C.
`Cc1ccc(-c2ccc3c(c2)CCc2nn(-c4ccccn4)c(O)c2-3)cc1` [Example 1.6, 2-pyridin-2-yl-7-p-tolyl-4,5-dihydro-2H-benzo[e]indazol-1-ol]: the melting point was in the range of 177 to 178 °C.
Take `COc1ccc(-c2ccc3c(c2)CCc2nn(-c4ccccn4)c(O)c2-3)cc1` [Example 1.7, 7-(4-methoxyphenyl)-2-pyridin-2-yl-4,5-dihydro-2H-benzo[e]indazol-1-ol]: the melting point was in the range of 159 to 160 °C.
Compound `Oc1c2c(nn1-c1ccccn1)CCc1cc(-c3ccc4c(c3)OCO4)ccc1-2` [Example 1.8, 7-benzo[1,3]dioxol-5-yl-2-pyridin-2-yl-4,5-dihydro-2H-benzo[e]indazol-1-ol] showed a melting point of 205 to 206 °C. On DMT1, the half-maximal inhibitory concentration (IC50) lay within 100 to 1000 nM.
Take `N#Cc1ccc(-c2ccc3c(c2)CCc2nn(-c4ccccn4)c(O)c2-3)cc1` [Example 1.9, 4-(1-hydroxy-2-pyridin-2-yl-4,5-dihydro-2H-benzo[e]indazol-7-yl)-benzonitrile]: the melting point was in the range of 274 to 275 °C. Also, at DMT1, the half-inhibitory concentration (IC50) is at least 1000 nM.
As for `Oc1c2c(nn1-c1ccc(C(F)(F)F)cn1)CCc1ccccc1-2` [Example 1.10, 2-(5-(trifluoromethyl)pyridin-2-yl)-4,5-dihydro-2H-benzo[e]indazol-1-ol], the melting point was in the range of 158 to 159 °C. Further, the half-maximal inhibitory concentration (IC50) at DMT1 is at least 1000 nM.
Taken in the same sequence, the figures for `Oc1c2c(nn1-c1cc(C(F)(F)F)ccn1)CCc1ccccc1-2` [Example 1.11, 2-(4-(trifluoromethyl)pyridin-2-yl)-4,5-dihydro-2H-benzo[e]indazol-1-ol] were 161 to 162 °C and 100 to 1000 nM.
As for `Oc1c2c(nn1-c1ncccc1C(F)(F)F)CCc1ccccc1-2` [Example 1.12, 2-(3-(trifluoromethyl)pyridin-2-yl)-4,5-dihydro-2H-benzo[e]indazol-1-ol], the melting point lay within 174 to 175 °C. Besides, the 50% inhibitory concentration (IC50) at DMT1 was at least 1000 nM.
Taken in the same sequence, the figures for `O=[N+]([O-])c1ccc(-n2nc3c(c2O)-c2ccccc2CC3)nc1` [Example 1.13, 2-(5-nitropyridin-2-yl)-4,5-dihydro-2H-benzo[e]indazol-1-ol] were 226 to 227 °C and 100 to 1000 nM.
`Cc1ccc(-n2nc3c(c2O)-c2ccccc2CC3)nc1` [Example 2, 2-(5-methylpyridin-2-yl)-4,5-dihydro-2H-benzo[e]indazol-1-ol] showed a melting point of 156 to 157 °C. Also, the IC50 on DMT1 lay in the range of 100 to 1000 nM.
Compound `[O-][n+]1ccccc1-n1nc2c(c1O)-c1ccccc1CC2` [Example 3, 2-(1-hydroxy-4,5-dihydro-2H-benzo[e]indazol-2-yl)pyridine 1-oxide] came in with a melting point of 155 to 156 °C.
In turn, `Oc1c2c(nn1-c1nc3ccccc3s1)CCc1ccccc1-2` [Example 4, 2-(benzo[d]thiazol-2-yl)-4,5-dihydro-2H-benzo[e]indazol-1-ol] registered a melting point of 234 to 235 °C.
Consider `COc1ccc2c(c1)CCc1nn(-c3nc4ccccc4s3)c(O)c1-2` [Example 4.1, 2-(benzo[d]thiazol-2-yl)-7-methoxy-4,5-dihydro-2H-benzo[e]indazol-1-ol], for which the melting point fell in the range of 182 to 183 °C. The IC50 at DMT1 fell in the range of 100 to 1000 nM.
The compound `COc1ccc2nc(-n3nc4c(c3O)-c3ccccc3CC4)sc2c1` [Example 4.2, 2-(6-methoxybenzo[d]thiazol-2-yl)-4,5-dihydro-2H-benzo[e]indazol-1-ol] returned a melting point of 204 to 205 °C.
On the same count and under the same terms, as for `Oc1c2c(nn1-c1nc3ccc(F)cc3s1)CCc1ccccc1-2` [Example 4.3, 2-(6-fluorobenzo[d]thiazol-2-yl)-4,5-dihydro-2H-benzo[e]indazol-1-ol], the figure is 246 to 247 °C; as for `Cc1ccc2nc(-n3nc4c(c3O)-c3ccccc3CC4)sc2c1` [Example 4.4, 2-(6-methylbenzo[d]thiazol-2-yl)-4,5-dihydro-2H-benzo[e]indazol-1-ol], 218 to 219 °C.
For `Cc1cccc2sc(-n3nc4c(c3O)-c3ccccc3CC4)nc12` [Example 4.5, 2-(4-methylbenzo[d]thiazol-2-yl)-4,5-dihydro-2H-benzo[e]indazol-1-ol], the melting point was 224 to 225 °C.
Same read-out and setting: as for `O=C(O)c1ccc2nc(-n3nc4c(c3O)-c3ccccc3CC4)sc2c1` [Example 4.6, 2-(1-hydroxy-4,5-dihydro-2H-benzo[e]indazol-2-yl)benzo[d]thiazole-6-carboxylic acid], the figure is over 280 °C.
In turn, `CC(C)(C)c1csc(-n2nc3c(c2O)-c2ccccc2CC3)n1.Cl` [Example 5, 2-(4-tert-butylthiazol-2-yl)-4,5-dihydro-2H-benzo[e]indazol-1-ol hydrochloride] gave a melting point of over 250 °C. On DMT1, the IC50 is at least 1000 nM.
In turn, `Oc1c2c(nn1-c1nc3ccccc3[nH]1)CCc1ccccc1-2` [Example 6, 2-(1H-benzo[d]imidazol-2-yl)-4,5-dihydro-2H-benzo[e]indazol-1-ol] yielded a melting point of 205 to 206 °C.
Take `Oc1c2c(nn1-c1ccccn1)CCCc1ccccc1-2` [Example 7, 2-pyridin-2-yl-2,4,5,6-tetrahydro-2,3-diaza-benzo[e]azulen-1-ol]: the melting point is 80 to 81 °C. In addition, at DMT1, the IC50 fell in the range of 100 to 1000 nM.
